Structures are written as SMILES. Several values for one entry are separate records, joined by “and”; a condition that tells them apart may be missing. Identical values can stand only once.

The text below walks through data of PMC6271731, “Multitarget Molecular Hybrids of Cinnamic Acids” (Molecules, 2014).

For data set [1], the system named is carrageenin-induced rat paw oedema. As to the kind of experiment: Inhibition of the carrageenin-induced rat paw oedema. It counts as in vivo, Fisher-344 rats. Particulars: 0.01 mmol/1 kg, i.p., 3.5 h after carrageenin. How it is done:
Anti-inflammatory tests were conducted on Fisher-344 inbred rats of ca. 200 g body weight whereas antinociception and motor and sensory functions after sciatic nerve crash were performed on Wistar rats. Both sexes were used. Females pregnant were excluded. Each group was composed of 6 animals. The animals, which have been bred in our laboratory, were housed under standard conditions and received a diet of commercial food pellets and water ad libitum during the maintenance. Our studies were carried out in accordance with recognised guidelines on animal experimentation.
The tested compounds 0.01 mmol/kg body weight were suspended in water with few drops of Tween 80 and ground in a mortar before use. Controls received the liquid vehicle only. All the in vivo experiments were repeated at least in triplicate and were subjected to statistic analysis using the student’s t-test.
Oedema was induced in the right hind paw of Fisher 344 rats by the intradermal injection of 0.1 mL 2% carrageenin in water. Each group was composed of 6 animals which they were entirely fasted during the experiment period. The tested compounds 0.01 mmol/kg body weight, were given intraperitoneally simultaneously with the carrageenin injection. The rats were euthanized 3.5 h after carrageenin injection. The difference between the weight of the injected and not-injected paws was calculated for each animal. The change in paw weight was compared with that in control animals (treated with water) and expressed as a percent inhibition of the oedema (ICPE % values in Table 1). Indomethacin 0.01 mmol/kg was used as reference compound. ICPE % are the mean values from two different experiments with a standard error of the mean less than 10%.
A general note: In the carrageenan paw model, swelling and tenderness develop within hours.

The test system of data set [2] is sciatic nerve crush. Put plainly: Recovery of motor and sensory functions after sciatic nerve crush. In kind it is in vivo, Wistar rats. Particulars: adult rats, intraperitoneally after the compression of the nerve. The procedure: The locomotor function recovery was examined through the flat runway test, the inclined plane runway test, the grid walking test and the Sciatic Functional Index (SFI) calculation.
One day prior to the surgery and the behavioral testing, Wistar rats were handled by the investigators and introduced to the testing environment for a brief period of time. Rats were anesthetized with chloral hydrate 4.5% (1 mL/100 g). […] After the exposure, the nerve was crushed once for 30 s at standardized force. The muscle was reapproximated and the skin incision was closed using 6 to 0 sutures. The examination of the loss of sensory and motor function in the operated limb established the crush completeness. Digits in the operated limb were pinched with a blunt forceps. Absence of foot withdrawal and vocalization was recorded as loss of sensory and motor function. Animals were placed under a heating lamp until they recovered from the anesthesia and they returned to their home cages.
The tested solutions were freshly prepared on surgery day (day 0).
The animals were subjected to a locomotor testing one day before the surgery and on the 1st, 8th, 15th and 22nd day after the sciatic nerve injury. The day of the surgery is considered as day 0 [36, 37, 38].

Data set [3] is described as follows: Lipophilicity as RM values by RP-TLC. In kind it is physicochemical. Particulars: methanol/water 70/30, 24 °C, average of at least five measurements. An outline of the steps:
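RP-TLC on silica gel impregnated with 5% (v/v) liquid paraffin, developed with methanol/water 70/30 (v/v) in saturated tanks at 24 °C; UV detection. RM calculated from Rf (five measurements) as RM = log[(1/Rf) − 1].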

Data set [4] has as its target T1, soybean lipoxygenase (Glycine max, UniProt P08170).
T1 construct: purchased Sigma Chemical, Co. (St. Louis, MO, USA)
T1 sequence (P08170 1-839): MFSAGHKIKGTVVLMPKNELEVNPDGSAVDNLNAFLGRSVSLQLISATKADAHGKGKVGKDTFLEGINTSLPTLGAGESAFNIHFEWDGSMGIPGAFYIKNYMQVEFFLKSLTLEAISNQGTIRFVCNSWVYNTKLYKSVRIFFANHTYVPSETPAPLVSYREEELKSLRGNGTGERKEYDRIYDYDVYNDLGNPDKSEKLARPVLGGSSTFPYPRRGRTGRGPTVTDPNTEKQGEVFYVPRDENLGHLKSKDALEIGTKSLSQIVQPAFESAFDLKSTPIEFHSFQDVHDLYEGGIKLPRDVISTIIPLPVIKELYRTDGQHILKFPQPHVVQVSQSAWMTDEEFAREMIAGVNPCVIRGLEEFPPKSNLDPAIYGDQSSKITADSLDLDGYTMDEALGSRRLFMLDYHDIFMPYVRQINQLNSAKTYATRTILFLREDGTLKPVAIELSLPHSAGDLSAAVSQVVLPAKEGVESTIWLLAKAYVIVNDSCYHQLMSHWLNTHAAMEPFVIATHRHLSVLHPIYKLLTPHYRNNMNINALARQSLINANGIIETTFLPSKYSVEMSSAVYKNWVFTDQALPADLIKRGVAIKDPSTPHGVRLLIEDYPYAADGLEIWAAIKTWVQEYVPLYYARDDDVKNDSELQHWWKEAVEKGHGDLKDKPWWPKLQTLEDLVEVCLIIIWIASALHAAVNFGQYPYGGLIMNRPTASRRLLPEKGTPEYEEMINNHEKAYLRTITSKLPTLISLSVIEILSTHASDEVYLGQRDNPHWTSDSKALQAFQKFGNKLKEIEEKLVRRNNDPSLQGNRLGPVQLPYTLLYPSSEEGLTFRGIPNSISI
As to the kind of experiment: Soybean lipoxygenase inhibition in vitro. It counts as biochemical. The procedure: DMSO solution of the tested compound was incubated with sodium linoleate (0.1 mM) and 0.2 mL of soybean lipoxygenase solution (1/9 × 10^−4 w/v in saline) in buffer pH 9 (tris) and at room temperature. […] The results are given in Table 1 expressed as IC50 values or % inhibition at 100 μM.

As to `CC(=O)Nc1ccc(OC(=O)/C=C/c2cccc(Oc3ccccc3)c2)cc1` [Compound 2a, (E)-4-Acetamidophenyl 3-(3-phenoxyphenyl)acrylate], the “% ICPE (carrageenin-induced rat paw oedema inhibition)” value in data set [1] is 36.5% and 36.5 ** %. For the same compound, the “recovering motor and sensory functions” value in data set [2] was “effective in recovering motor and sensory functions”. Also, the “RM (±S.D.)” value in data set [3] was determined as 0.276 ± 0.006. The compound also came in with an IC50 in data set [4] of 100 µM.

What is called IC50 is the concentration that gives 50% inhibition. A higher IC50 goes with weaker potency in that assay.
